Target: recombinant human GST-Syk (Homo sapiens (Human), UniProt P43405)
Assay: Homogeneous Time-Resolved Fluorescence (HTRF) assay for the recombinant human Syk enzyme
Format: biochemical
Details: recombinant human GST-Syk 5 pM, ATP 25 μM; class symbols; read-out: rhSyk activity (IC50)
Description: Homogeneous Time-Resolved Fluorescence (HTRF) Assay for the Recombinant Human Syk Enzyme:
A recombinant GST-hSyk fusion protein was used to measure potency of compounds to inhibit human Syk activity. The recombinant human GST-Syk ([…] #08-176) (5 pM final concentration) was incubated with various concentrations of the inhibitor diluted in DMSO (0.1% final concentration) for 10 minutes at room temperature in 15 mM Tris-HCl (pH 7.5), 0.01% tween 20, 2 mM DTT in 384 well plate format. To initiate the reaction the biotinylated substrate peptide (250 nM final concentration) that contains the phosphorylation site for Syk was added with magnesium (5 mM final concentration) and ATP (25 μM final concentration). Final volume of the reaction was 10 μL. Phosphorylation of the peptide was allowed to proceed for 45 minutes at room temperature. To quench the reaction and detect the phosphorylated product, 2 nM of a Europium-anti-phosphotyrosine antibody (Perkin Elmer #AD0161) and 70 nM SA-APC (Perkin-Elmer #CR130-100) were added together in 15 mM Tris pH 7.5, 40 mM EDTA, 0.01% tween 20. Final volume of the quenching solution was 10 μL. The resulting HTRF signal was measured after 30 minutes on an EnVision (Perkin-Elmer) reader using a time-resolved fluorescence protocol.

Row | Structure (SMILES) | IC50
1 | CCC(O)(c1ncc(-c2cc(C)cc(Nc3cc(OC(C)C)ccn3)n2)s1)[C@H]1CC[C@H](C(=O)O)CC1 (single isomer, unassigned) [Example 14-22, trans-4-{1-hydroxy-1-[5-(4-methyl-6-{[4-(propan-2-yloxy)pyridin-2-yl]amino}pyridin-2-yl)-1,3-thiazol-2-yl]propyl}cyclohexanecarboxylic acid] | ≤ 100 nM
2 | Cc1cc(Nc2cc(C(F)(F)F)ccn2)nc(-c2cnc(C(C)(O)C3CCC(C(=O)O)C(C)C3)s2)c1 (single isomer, unassigned) [Example 15-12, 4-{1-hydroxy-1-[5-(4-methyl-6-{[4-(trifluoromethyl)pyridin-2-yl]amino}pyridin-2-yl)-1,3-thiazol-2-yl]ethyl}-2-methylcyclohexanecarboxylic acid] | ≤ 100 nM
3 | CCC(O)(c1ncc(-c2cc(C)cc(Nc3cc(C4CC4)ccn3)n2)s1)[C@H]1CC[C@H](C(=O)O)CC1 (mixture of isomers) [Example 1, racemic, trans-4-[1-(5-{6-[(4-Cyclopropylpyridin-2-yl)amino]-4-methylpyridin-2-yl}-1,3-thiazol-2-yl)-1-hydroxypropyl]cyclohexanecarboxylic acid] | ≤ 100 nM
4 | Cc1cc(Nc2cc(C(F)(F)F)ccn2)nc(-c2cnc(C(C)(O)C3CCC(C(=O)O)C(C)C3)s2)c1 (single isomer, unassigned) [Example 15-5, 4-{1-hydroxy-1-[5-(4-methyl-6-{[4-(trifluoromethyl)pyridin-2-yl]amino}pyridin-2-yl)-1,3-thiazol-2-yl]ethyl}-2-methylcyclohexanecarboxylic acid] | ≤ 100 nM
5 | Cc1cc(Nc2cc(OC(C)C)ccn2)nc(-c2cnc(C(O)([C@H]3CC[C@H](C(=O)O)CC3)C(F)(F)F)s2)c1 (single isomer, unassigned) [Example 14-26, trans-4-{2,2,2-trifluoro-1-hydroxy-1-[5-(4-methyl-6-{[4-(propan-2-yloxy)pyridin-2-yl]amino}pyridin-2-yl)-1,3-thiazol-2-yl]ethyl}cyclohexanecarboxylic acid] | ≤ 100 nM
6 | COc1ccnc(Nc2cc(C)cc(-c3cnc(C(C)(O)[C@H]4CC[C@H](C(=O)O)CC4)s3)n2)c1 (relative stereo) [Example 14-3, trans-4-[1-hydroxy-1-(5-{6-[(4-methoxypyridin-2-yl)amino]-4-methylpyridin-2-yl}-1,3-thiazol-2-yl)ethyl]cyclohexanecarboxylic acid] | ≤ 100 nM
7 | Cc1cc(Nc2cc(C(F)(F)F)ccn2)nc(-c2cnc(C(C)(O)C3CCC(C(=O)O)C(C)C3)s2)c1 (stereo not drawn) [Example 15-17, 4-{1-hydroxy-1-[5-(4-methyl-6-{[4-(trifluoromethyl)pyridin-2-yl]amino}pyridin-2-yl)-1,3-thiazol-2-yl]ethyl}-2-methylcyclohexanecarboxylic acid] | ≤ 100 nM
8 | Cc1cc(Nc2cc(C(F)(F)F)ccn2)nc(-c2cnc(C(C)(O)C3CCN(C(N)=O)C3)s2)c1 (stereo not drawn) [Example 13, 3-{1-Hydroxy-1-[5-(4-methyl-6-{[4-(trifluoromethyl)pyridin-2-yl]amino}pyridin-2-yl)-1,3-thiazol-2-yl]ethyl}pyrrolidine-1-carboxamide] | ≤ 100 nM
9 | CC(C)c1ccnc(Nc2cccc(-c3cnc(C(C)(O)[C@H]4CC[C@H](C(=O)O)CC4)s3)n2)c1 (relative stereo) [Example 14-43, trans-4-{1-hydroxy-1-[5-(6-{[4-(propan-2-yl)pyridin-2-yl]amino}pyridin-2-yl)-1,3-thiazol-2-yl]ethyl}cyclohexanecarboxylic acid] | ≤ 100 nM
10 | Cc1cc(Nc2cc(C(F)(F)F)ccn2)nc(-c2cnc(C(C)(O)C3CCC(C(=O)O)C(C)C3)s2)c1 (single isomer, unassigned) [Example 15-9, 4-{1-hydroxy-1-[5-(4-methyl-6-{[4-(trifluoromethyl)pyridin-2-yl]amino}pyridin-2-yl)-1,3-thiazol-2-yl]ethyl}-2-methylcyclohexanecarboxylic acid] | ≤ 100 nM
11 | Cc1cc(Nc2cc(C(F)F)ccn2)nc(-c2cnc(C(C)(O)[C@H]3CC[C@H](C(=O)O)C(C)(C)C3)s2)c1 (stereo partly drawn) [Example 14-37, (1S,4S)-4-{1-[5-(6-{[4-(difluoromethyl)pyridin-2-yl]amino}-4-methylpyridin-2-yl)-1,3-thiazol-2-yl]-1-hydroxyethyl}-2,2-dimethylcyclohexanecarboxylic acid] | ≤ 100 nM
12 | COc1ccnc(Nc2cccc(-c3cnc(C(C)(O)[C@H]4CC[C@H](C(=O)O)C(C)(C)C4)s3)n2)c1 (stereo partly drawn) [Example 14-49, (1S,4S)-4-[1-hydroxy-1-(5-{6-[(4-methoxypyridin-2-yl)amino]pyridin-2-yl}-1,3-thiazol-2-yl)ethyl]-2,2-dimethylcyclohexanecarboxylic acid] | ≤ 100 nM
13 | CCCCOC(=O)[C@H]1CC[C@H](C(C)(O)c2ncc(-c3cc(C)cc(Nc4cc(C5CC5)ccn4)n3)s2)CC1 (relative stereo) [Example 14-6, butyl trans-4-[1-(5-{6-[(4-cyclopropylpyridin-2-yl)amino]-4-methylpyridin-2-yl}-1,3-thiazol-2-yl)-1-hydroxyethyl]cyclohexanecarboxylate] | 100 to 1000 nM
14 | Cc1cc(Nc2cc(C(F)(F)F)ccn2)nc(-c2cnc([C@@](C)(O)[C@H]3CNC(=O)C3)s2)c1 [Example 14-55, (4R)-4-{(1S)-1-hydroxy-1-[5-(4-methyl-6-{[4-(trifluoromethyl)pyridin-2-yl]amino}pyridin-2-yl)-1,3-thiazol-2-yl]ethyl}pyrrolidin-2-one] | ≤ 100 nM
15 | Cc1cc(Nc2cc(C(F)(F)F)ccn2)nc(-c2cnc(C(C)(O)[C@@H]3CC[C@H](C(=O)O)C(C)(C)C3)s2)c1 (stereo partly drawn) [Example 14-30, (1S,4R)-4-{1-hydroxy-1-[5-(4-methyl-6-{[4-(trifluoromethyl)pyridin-2-yl]amino}pyridin-2-yl)-1,3-thiazol-2-yl]ethyl}-2,2-dimethylcyclohexanecarboxylic acid] | ≤ 100 nM
16 | Cc1cc(Nc2cc(C(F)(F)F)ccn2)nc(-c2cnc(C(C)(O)C3CCC(C(=O)O)C(C)C3)s2)c1 (stereo not drawn) [Example 15-16, 4-{1-hydroxy-1-[5-(4-methyl-6-{[4-(trifluoromethyl)pyridin-2-yl]amino}pyridin-2-yl)-1,3-thiazol-2-yl]ethyl}-2-methylcyclohexanecarboxylic acid] | ≤ 100 nM
17 | Cc1ccnc(Nc2cccc(-c3cnc(C(C)(O)[C@H]4CC[C@H](C(=O)O)CC4)s3)n2)c1 (single isomer, unassigned) [Example 14-40, trans-4-[1-hydroxy-1-(5-{6-[(4-methylpyridin-2-yl)amino]pyridin-2-yl}-1,3-thiazol-2-yl)ethyl]cyclohexanecarboxylic acid] | ≤ 100 nM
18 | CC(O)(c1ncc(-c2cc(C3CC3)cc(Nc3cc(C(F)(F)F)ccn3)n2)s1)[C@H]1CC[C@H](C(=O)O)CC1 (single isomer, unassigned) [Example 14-54] | ≤ 100 nM
19 | Cc1cc(Nc2cc(C(F)(F)F)ccn2)nc(-c2cnc(C(C)(O)C3CCC(C(=O)O)C(C)C3)s2)c1 (single isomer, unassigned) [Example 15-4, 4-{1-hydroxy-1-[5-(4-methyl-6-{[4-(trifluoromethyl)pyridin-2-yl]amino}pyridin-2-yl)-1,3-thiazol-2-yl]ethyl}-2-methylcyclohexanecarboxylic acid] | ≤ 100 nM
20 | Cc1cc(Nc2cc(C(F)(F)F)ccn2)nc(-c2cnc(C(O)([C@H]3CC[C@H](C(=O)O)CC3)C(F)(F)F)s2)c1 (single isomer, unassigned) [Example 14-20, trans-4-{2,2,2-trifluoro-1-hydroxy-1-[5-(4-methyl-6-{[4-(trifluoromethyl)pyridin-2-yl]amino}pyridin-2-yl)-1,3-thiazol-2-yl]ethyl}cyclohexanecarboxylic acid] | ≤ 100 nM
21 | Cc1cc(Nc2cc(C(F)(F)F)ccn2)nc(-c2cnc(C(O)(C3CC3)[C@H]3CC[C@H](C(=O)O)CC3)s2)c1 (single isomer, unassigned) [Example 14-17, trans-4-{cyclopropyl(hydroxy)[5-(4-methyl-6-{[4-(trifluoromethyl)pyridin-2-yl]amino}pyridin-2-yl)-1,3-thiazol-2-yl]methyl}cyclohexanecarboxylic acid] | ≤ 100 nM
22 | Cc1cc(Nc2cc(C(F)(F)F)ccn2)nc(-c2cnc(C(O)([C@H]3CC[C@H](C(=O)O)CC3)C(F)(F)F)s2)c1 (single isomer, unassigned) [Example 14-19, trans-4-{2,2,2-trifluoro-1-hydroxy-1-[5-(4-methyl-6-{[4-(trifluoromethyl)pyridin-2-yl]amino}pyridin-2-yl)-1,3-thiazol-2-yl]ethyl}cyclohexanecarboxylic acid] | ≤ 100 nM
23 | Cc1ccnc(Nc2cccc(-c3cnc(C(C)(O)[C@H]4CC[C@H](C(=O)O)C(C)(C)C4)s3)n2)c1 (stereo partly drawn) [Example 14-47, (1S,4S)-4-[1-hydroxy-1-(5-{6-[(4-methylpyridin-2-yl)amino]pyridin-2-yl}-1,3-thiazol-2-yl)ethyl]-2,2-dimethylcyclohexanecarboxylic acid] | ≤ 100 nM
24 | CCCCOC(=O)[C@H]1CC[C@H](C(C)(O)c2ncc(-c3cc(C)cc(Nc4cc(C(F)(F)F)ccn4)n3)s2)CC1 (single isomer, unassigned) [Example 14, Step 1, butyl trans-4-{(1R or 1S)-1-hydroxy-1-[5-(4-methyl-6-{[4-(trifluoromethyl)pyridin-2-yl]amino}pyridin-2-yl)-1,3-thiazol-2-yl]ethyl}cyclohexanecarboxylate] | 100 to 1000 nM

— patent publication US9120785B2, “Pyridyl aminopyridines as Syk inhibitors” (Merck Sharp & Dohme Corp., priority 2011, dated 2015)
